Test results from patent publication US8927563B2, “Kinase inhibitor” (Respivert Limited, priority 2013, dated 2015).
pIC50: −log10 of the molar value. Read-outs that look alike come from different tables or passages of the source. One block for each compound: values may come before it.

Assays:
[1] = molecular target: CYP3A4 (Homo sapiens (Human), UniProt P08684); experiment: CYP3A4 inhibition with and without preincubation; assay type: in vitro ADME; details: for inhibition at 15 µM: human, read-out: 15 μM % Inh
Protocol: (§1) Assessment of certain in vitro ADME (absorption, distribution, metabolism, and excretion) parameters for Compound I was conducted by BioFocus (Saffron Walden, UK). The results reveal that Compound I is cleared rapidly by human hepatocytes and that it has a reduced liability for time-dependent cytochrome P450 inhibition.

[2] = molecular target: CYP2C9 (Homo sapiens (Human), UniProt P11712); experiment: CYP2C9 inhibition with and without preincubation; assay type: in vitro ADME; details: for inhibition at 5 μM: human, 5 μM (precipitation at 15 μM), read-out: % Inh, inhibition at 5 μM reported instead
Protocol: as §1

[3] = test system: non-mutant kinases; experiment: KinomeScan selectivity scores; assay type: binding; details: for number of individual kinase hits, S(1): % Ctrl <1; for number of individual kinase hits, S(10): % Ctrl <10; for number of individual kinase hits, S(35): % Ctrl <35
Protocol: Kinase enzyme binding activities of compounds disclosed herein may be determined using a proprietary assay which measures active site-directed competition binding to an immobilized ligand (Fabian, M. A. et al., Nature Biotechnol., 2005, 23:329-336). These assays may be conducted by DiscoverX (formerly Ambit; San Diego, Calif.). The percentage inhibition produced by incubation with a test compound may be calculated relative to the non-inhibited control.

[4] = test system: d-U937 cells; experiment: Accumulation of β catenin in d-U937 cells; assay type: cell-based, human; details: 1 μg/mL; normalised to Reference compound at 1 μg/mL
Protocol: U937 cells, a human monocytic cell line, are differentiated into macrophage-type cells by incubation with PMA (100 ng/mL) for between 48 to 72 hr. The cells are then incubated with either final concentrations of test compound or vehicle for 18 hr. The induction of β-catenin by the test compound is stopped by replacing the media with 4% formaldehyde solution. Endogenous […] is neutralised by incubating with quenching buffer (100 μL, 0.1% sodium azide, 1% H2O2 in PBS with 0.05% Tween-20) for 20 min. The cells are washed with washing buffer (200 μL; PBS containing 0.05% Tween-20) and incubated with blocking solution (200 μL; 5% milk in PBS) for 1 hr, re-washed with washing buffer (200 μL) and then incubated overnight with anti-β-catenin antibody solution (50 μL) in 1% BSA/PBS (BD, Oxford, UK).
After washing with washing buffer (3×200 μL; PBS containing 0.05% Tween-20), cells are incubated with a HRP-conjugated secondary antibody solution (100 μL) in 1% BSA/PBS (Dako, Cambridge, UK) and the resultant signal is determined colourimetrically (OD: 450 nm with a reference wavelength of 655 nm) using TMB substrate (50 μL; R&D Systems, Abingdon, UK). This reaction is stopped by addition of 1N H2SO4 solution (50 μL). Cells are then washed with washing buffer and 2% crystal violet solution (50 μL) is applied for 30 min. After washing with washing buffer (3×200 μL), 1% SDS (100 μL) is added to each well and the plates are shaken lightly for 1 hr prior to measuring the absorbance at 595 nm (Varioskan® Flash, Thermo-Fisher Scientific).
The measured OD450-655 readings are corrected for cell number by dividing the OD450-655 by the OD595 readings.

[5] = Hydrolytic stability study; assay type: physicochemical; details: DMSO and water (3:1), 1 mg/mL
Protocol: Chemical stability of Compound I was assessed in a mixture of DMSO and water (3:1) at a test compound concentration of 1 mg/mL
Sample Preparation • A 1.0 mg sample of test compound was dissolved in 750 μL of DMSO. Water (250 μL) was added slowly, ensuring no precipitation occurred.
Recording Stability • A 50 μL aliquot of the test solution was removed and analysed in duplicate by 5 μL HPLC injections. The peak area for the test compound was recorded following manual integration of the corresponding UV trace. • The test solution was heated to 60° C., with stirring, and 50 μL aliquots removed for HPLC analysis at 5 and 24 h timepoints.

Sequence of CYP3A4 (P08684 whole entry): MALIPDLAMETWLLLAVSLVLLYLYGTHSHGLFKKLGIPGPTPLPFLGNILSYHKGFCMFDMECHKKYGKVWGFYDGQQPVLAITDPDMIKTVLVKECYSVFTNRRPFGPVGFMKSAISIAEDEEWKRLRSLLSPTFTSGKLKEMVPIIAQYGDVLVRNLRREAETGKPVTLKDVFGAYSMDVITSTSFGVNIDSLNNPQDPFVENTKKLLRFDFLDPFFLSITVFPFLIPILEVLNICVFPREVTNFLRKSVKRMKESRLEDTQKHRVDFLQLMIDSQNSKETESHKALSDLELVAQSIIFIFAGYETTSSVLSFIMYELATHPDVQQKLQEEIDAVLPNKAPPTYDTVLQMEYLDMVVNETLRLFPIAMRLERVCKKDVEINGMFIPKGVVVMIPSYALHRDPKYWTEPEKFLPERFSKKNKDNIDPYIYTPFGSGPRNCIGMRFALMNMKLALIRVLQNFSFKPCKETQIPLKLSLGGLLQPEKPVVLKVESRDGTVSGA
Sequence of CYP2C9 (P11712 whole entry): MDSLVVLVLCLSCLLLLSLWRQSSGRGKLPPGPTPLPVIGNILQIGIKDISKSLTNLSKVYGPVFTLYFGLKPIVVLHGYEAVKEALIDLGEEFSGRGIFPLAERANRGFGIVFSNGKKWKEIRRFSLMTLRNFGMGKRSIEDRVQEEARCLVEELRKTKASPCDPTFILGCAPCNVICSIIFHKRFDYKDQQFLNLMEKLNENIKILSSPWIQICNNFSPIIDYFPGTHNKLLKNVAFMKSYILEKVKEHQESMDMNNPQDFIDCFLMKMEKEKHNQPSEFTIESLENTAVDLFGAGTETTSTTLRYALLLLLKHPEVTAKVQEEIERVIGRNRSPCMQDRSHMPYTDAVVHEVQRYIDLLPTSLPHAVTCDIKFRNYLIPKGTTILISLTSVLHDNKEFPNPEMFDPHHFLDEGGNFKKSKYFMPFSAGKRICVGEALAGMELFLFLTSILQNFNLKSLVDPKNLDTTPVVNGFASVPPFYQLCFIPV

pIC50 ([1]; CYP3A4, 0 min preincubation): < 4.82 | pIC50 ([1]; CYP3A4, 30 min preincubation): 6.40 | inhibition at 15 µM ([1]; CYP3A4, 0 min preincubation): 41% | inhibition at 15 µM ([1]; CYP3A4, 30 min preincubation): 92% | pIC50 ([2]; CYP2C9, 0 min preincubation): < 5.30 | pIC50 ([2]; CYP2C9, 30 min preincubation): 5.85 | inhibition at 5 μM ([2]; CYP2C9, 0 min preincubation): 31% | inhibition at 5 μM ([2]; CYP2C9, 30 min preincubation): 66%
SMILES: C#CC(C)(C)c1cc(NC(=O)Nc2ccc(Oc3ccnc(Nc4cc(C)c5[nH]ncc5c4)n3)c3ccccc23)n(-c2ccc(C)cc2)n1 [Ref Cpd A, 1-(4-((2-((7-methyl-1H-indazol-5-yl)amino)pyrimidin-4-yl)oxy)-naphthalen-1-yl)-3-(3-(2-methylbut-3-yn-2-yl)-1-(p-tolyl)-1H-pyrazol-5-yl)urea, reference compound]

SMILES: COCC(=O)Nc1cc(Oc2ccc(NC(=O)Nc3cc(C(C)(C)C)nn3-c3ccc(C)cc3)c3ccccc23)ccn1 [Reference Compound, N-(4-(4-(3-(3-tert-butyl-1-p-tolyl-1H-pyrazol-5-yl)ureido)naphthalen-1-yloxy)pyridin-2-yl)-2-methoxyacetamide, reference compound]
number of individual kinase hits, S(1) ([3]; 50 nM): 7 | number of individual kinase hits, S(10) ([3]; 50 nM): 32 | number of individual kinase hits, S(35) ([3]; 50 nM): 67 | number of individual kinase hits, S(1) ([3]; 500 nM): 45 | number of individual kinase hits, S(10) ([3]; 500 nM): 105 | number of individual kinase hits, S(35) ([3]; 500 nM): 143 | % β-catenin induction [4]: 100%

% Parent Remaining ([5]; 0 min): 100% | % Parent Remaining ([5]; 60° C., 300 min): 82% | % Parent Remaining ([5]; 60° C., 1440 min): 36%
SMILES: C#Cc1cc(Nc2nccc(Oc3ccc(NC(=O)Nc4cc(C(C)C)nn4-c4ccc(C)cc4)c4ccccc34)n2)cc(C(=O)NCCN2CCOCC2)c1 [Reference Compound B, 3-ethynyl-5-((4-((4-(3-(3-isopropyl-1-(p-toly)-1H-pyrazol-5-yl)ureido)naphthalen-1-yl)oxy)pyrimidin-2-yl)amino)-N-(2-morpholinoethyl)benzamide, reference compound]
